The target in this test is T1, Human complement C1s enzyme (Homo sapiens, UniProt P09871).
T1 sequence (P09871 438-688 limits assumed): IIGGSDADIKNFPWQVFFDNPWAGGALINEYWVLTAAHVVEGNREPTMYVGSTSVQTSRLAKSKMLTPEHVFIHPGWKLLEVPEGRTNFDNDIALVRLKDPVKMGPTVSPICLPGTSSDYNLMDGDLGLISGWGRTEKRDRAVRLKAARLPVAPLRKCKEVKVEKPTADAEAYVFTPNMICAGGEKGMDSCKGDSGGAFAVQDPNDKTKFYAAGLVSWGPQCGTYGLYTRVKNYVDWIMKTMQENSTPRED
T1 sequence (P09871 16-437 partner limits assumed): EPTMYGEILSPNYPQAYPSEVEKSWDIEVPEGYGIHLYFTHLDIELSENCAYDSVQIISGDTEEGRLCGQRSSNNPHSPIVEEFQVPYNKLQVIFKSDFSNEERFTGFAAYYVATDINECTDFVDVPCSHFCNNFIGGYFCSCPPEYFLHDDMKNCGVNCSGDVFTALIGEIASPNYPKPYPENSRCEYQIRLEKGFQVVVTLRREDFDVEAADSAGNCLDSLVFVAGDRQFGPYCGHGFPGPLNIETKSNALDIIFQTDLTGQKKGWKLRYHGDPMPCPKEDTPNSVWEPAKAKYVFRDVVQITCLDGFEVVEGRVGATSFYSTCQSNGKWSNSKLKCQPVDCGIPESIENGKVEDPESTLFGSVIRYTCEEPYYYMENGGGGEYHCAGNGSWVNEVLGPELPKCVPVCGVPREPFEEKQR
Briefly: Human C1s enzyme assay. The test is classed as biochemical. The settings on record: human complement C1s enzyme 1.16 nM, substrate Z-L-Lys-SBzl 100 μM, 5 min preincubation; read-out: IC50 (Stars), C1s Inhibiting Activity. An outline of the steps:
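Serum-purified human C1s (1.16 nM final) preincubated 5 min at room temperature with compound in 50 mM Tris, 1 M NaCl, pH 7.5. Z-L-Lys-SBzl and DTNB added at 100 μM each; A405 followed every 30 s for 30 min, and IC50 obtained by nonlinear regression of reaction rates.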

On to `COC[C@@]1(F)C[C@@H](C(=O)N[C@H](C)c2cc3cnccc3[nH]2)N(C(=O)CNC(=O)c2ccc3c(c2)Oc2ccccc2S3)C1` [Compound 173, (2S,4R)-N-((R)-1-(1H-pyrrolo[3,2-c]pyridin-2-yl)ethyl)-4-fluoro-4-(methoxymethyl)-1-((phenoxathiine-3-carbonyl)glycyl)pyrrolidine-2-carboxamide], for which the IC50 was below 100 nM.

Turning to `C[C@@]12C[C@@H]1N(C(=O)CNC(=O)c1ccc3c(c1)Oc1ccccc1S3)[C@H](C(=O)NCc1ccc(B(O)O)cc1)C2` [Compound 263, (4-(((1S,3S,5S)-5-methyl-2-((phenoxathiine-3-carbonyl)glycyl)-2-azabicyclo[3.1.0]hexane-3-carboxamido)methyl)phenyl) boronic acid], the half-maximal inhibitory concentration (IC50) is above 1000 nM. With `Cc1ccc(Oc2cccc(C(=O)NCC(=O)N3C[C@H](OC(F)F)C[C@H]3C(=O)NCc3c(C)cc(N)nc3C)c2F)cc1` [Compound 374, (2S,4R)-N-((6-amino-2,4-dimethylpyridin-3-yl)methyl)-4-(difluoromethoxy)-1-((2-fluoro-3-(p-tolyloxy)benzoyl)glycyl) pyrrolidine-2-carboxamide], the half-inhibitory concentration (IC50) was above 1000 nM. Turning to `C[C@@]12C[C@@H]1N(C(=O)CNC(=O)c1ccc(Oc3ccccc3)cc1)[C@H](C(=O)NCc1cc3c(s1)C(N)=NCC3)C2` [Compound 1, (1S,3S,5S)-N-((7-amino-4,5-dihydrothieno[2,3-c]pyridin-2-yl)methyl)-5-methyl-2-((4-phenoxybenzoyl)glycyl)-2-azabicyclo[3.1.0]hexane-3-carboxamide], the IC50 was above 1000 nM. Then `Cc1ccc(-c2ccc(C(=O)NCC(=O)N3CC4(C[C@H]3C(=O)NCc3cc5cnccc5[nH]3)OCCO4)cc2)s1` [Compound 297, (S)-N-((1H-pyrrolo[3,2-c]pyridin-2-yl)methyl)-7-((4-(5-methylthiophen-2-yl)benzoyl)glycyl)-1,4-dioxa-7-azaspiro[4.4]nonane-8-carboxamide], with below 100 nM.

Regarding `C[C@@H](NC(=O)[C@@H]1C[C@](F)(Cn2ccnc2)CN1C(=O)CNC(=O)c1ccc2c(c1)Oc1ccccc1S2)c1cc2cnccc2[nH]1` [Compound 217, (2S,4S)-4-((1H-imidazol-1-yl)methyl)-N-((R)-1-(1H-pyrrolo[3,2-c]pyridin-2-yl)ethyl)-4-fluoro-1-((phenoxathiine-3-carbonyl)glycyl)pyrrolidine-2-carboxamide], the IC50 is below 100 nM. Then `C[C@@]12C[C@@H]1N(C(=O)CNC(=O)c1ccc3c(c1)Oc1ccccc1S3)[C@H](C(=O)NCc1cc3cc(B(O)O)ccc3[nH]1)C2` [Compound 291, (2-(((1S,3S,5S)-5-methyl-2-((phenoxathiine-3-carbonyl)glycyl)-2-azabicyclo[3.1.0]hexane-3-carboxamido)methyl)-1H-indol-5-yl)boronic acid], with above 1000 nM; and `C[C@@H](NC(=O)[C@@H]1CC2(CN1C(=O)CNC(=O)c1cccc(Oc3ccc(F)cc3)c1)OCCO2)c1cc2cnccc2[nH]1` [Compound 240, (S)-N-((R)-1-(1H-pyrrolo[3,2-c]pyridin-2-yl)ethyl)-7-((3-(4-fluorophenoxy)benzoyl)glycyl)-1,4-dioxa-7-azaspiro[4.4]nonane-8-carboxamide], with below 100 nM; and `CS(=O)(=O)[C@@H]1C[C@@H](C(=O)NCc2cc3cnccc3[nH]2)N(C(=O)CNC(=O)c2ccc3c(c2)-c2ccccc2C3(F)F)C1` [Compound 7, (2S,4R)-N-((1H-pyrrolo[3,2-c]pyridin-2-yl)methyl)-1-((9,9-difluoro-9H-fluorene-3-carbonyl)glycyl)-4-(methylsulfonyl)pyrrolidine-2-carboxamide], with below 100 nM. For the compound `Cc1ccc(Oc2cccc(C(=O)NCC(=O)N3C[C@@](F)(CF)C[C@H]3C(=O)NCc3cc4cnccc4[nH]3)c2)c(F)c1` [Compound 319, (2S,4R)-N-((1H-pyrrolo[3,2-c]pyridin-2-yl)methyl)-4-fluoro-1-((3-(2-fluoro-4-methylphenoxy)benzoyl)glycyl)-4-(fluoromethyl) pyrrolidine-2-carboxamide], the IC50 was below 100 nM.

As to `CO[C@@H]1CCN(C(=O)CNC(=O)c2ccc3c(c2)Oc2ccccc2S3)[C@@H]1C(=O)NCc1cc2cnccc2[nH]1` [Compound 285], the IC50 was above 1000 nM. Then `O=C(NCC(=O)N1CC2(C[C@H]1C(=O)NCc1cc3cnccc3[nH]1)OCCO2)c1ccc2c(c1)sc1ccccc12` [Compound 179, (S)-N-((1H-pyrrolo[3,2-c]pyridin-2-yl)methyl)-7-((dibenzo[b,d]thiophene-3-carbonyl)glycyl)-1,4-dioxa-7-azaspiro[4.4]nonane-8-carboxamide], with below 100 nM; and `C[C@@H](NC(=O)[C@@H]1C[C@]2(C)C[C@@H]2N1C(=O)CN1Cc2cc(-c3ccc(F)cc3)ccc2C1=O)c1cc2cnccc2[nH]1` [Compound 116, (1S,3S,5S)-N-((R)-1-(1H-pyrrolo[3,2-c]pyridin-2-yl)ethyl)-2-(2-(5-(4-fluorophenyl)-1-oxoisoindolin-2-yl)acetyl)-5-methyl-2-azabicyclo[3.1.0]hexane-3-carboxamide], with above 1000 nM.

On to `C[C@@]12C[C@@H]1N(C(=O)CNC(=O)c1ccc(Oc3ccc(C(F)(F)F)cc3)cc1)[C@H](C(=O)NCc1cc3cnccc3[nH]1)C2` [Compound 139, (1S,3S,5S)-N-((1H-pyrrolo[3,2-c]pyridin-2-yl)methyl)-5-methyl-2-((4-(4-(trifluoromethyl)phenoxy)benzoyl)glycyl)-2-azabicyclo[3.1.0]hexane-3-carboxamide], for which the IC50 was 100 to 1000 nM. Turning to `Cc1cccc2c1oc1ccc(C(=O)NCC(=O)N3CCC[C@H]3C(=O)NCc3cc4cnccc4[nH]3)cc12` [Compound 336, (S)-N-((1H-pyrrolo[3,2-c]pyridin-2-yl)methyl)-1-((6-methyldibenzo[b,d]furan-2-carbonyl)glycyl)pyrrolidine-2-carboxamide], the IC50 is below 100 nM. As for `CS(=O)(=O)[C@@H]1C[C@@H](C(=O)N[C@H](CO)c2cc3cnccc3[nH]2)N(C(=O)CNC(=O)c2ccc3c(c2)-c2ccccc2C3(F)F)C1` [Compound 104, (2S,4R)-1-((9,9-difluoro-9H-fluorene-3-carbonyl)glycyl)-N-((S)-2-hydroxy-1-(1H-pyrrolo[3,2-c]pyridin-2-yl)ethyl)-4-(methylsulfonyl) pyrrolidine-2-carboxamide], the figure is 100 to 1000 nM; as for `C[C@@]12C[C@@H]1N(C(=O)CNC(=O)CCCOc1ccccc1)[C@H](C(=O)N[C@@H]1CCn3c(CN)ccc31)C2` [Compound 78, (1S,3S,5S)-N-((R)-5-(aminomethyl)-2,3-dihydro-1H-pyrrolizin-1-yl)-5-methyl-2-((4-phenoxybutanoyl)glycyl)-2-azabicyclo[3.1.0]hexane-3-carboxamide], 100 to 1000 nM; as for `Cc1ccc(Oc2cccc(C(=O)NCC(=O)N3C[C@H](OC(F)F)C[C@H]3C(=O)N[C@H](C)c3cc4cnccc4[nH]3)c2)c(F)c1` [Compound 312, (2S,4R)-N-((R)-1-(1H-pyrrolo[3,2-c]pyridin-2-yl)ethyl)-4-(difluoromethoxy)-1-((3-(2-fluoro-4-methylphenoxy)benzoyl)glycyl) pyrrolidine-2-carboxamide], below 100 nM. `O=C(NCC(=O)N1C[C@H](OC(F)F)C[C@H]1C(=O)NCc1cc2cnccn2c1)c1cccc(Oc2ccccc2)c1` [Compound 270, (2S,4R)-4-(difluoromethoxy)-1-((3-phenoxybenzoyl)glycyl)-N-(pyrrolo[1,2-a]pyrazin-7-ylmethyl)pyrrolidine-2-carboxamide]: the IC50 is below 100 nM.

A word on the IC50: it is the concentration that gives 50% inhibition.

For the origin of these results see patent US20260062443A1 (ALEXION PHARMACEUTICALS, INC., priority 2022, published 2026).
